Reference: patent US20090181972A1, “Novel Inhibitors of Cysteine Proteases, the Pharmaceutical Compositions Thereof and their Therapeutic Applications” (priority 2005, published 2009)

Test system: PC-3 prostate cancer cells
Test: PC3 cell viability and proliferation assay (MTS)
Format: cell-based
Conditions: 72 hours incubation, mean of three independent experiments, read-out: PC3 GI50 D3
How it was run: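 PC-3 cells, seeded 24 h earlier, were treated in triplicate at 5 nM–10 μM with 0.5% final DMSO for 72 hours. Viability was read by 2-hour MTS conversion and absorbance at 492 nm. GI50 came from a sigmoidal variable-slope fit, averaged over three independent experiments.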

GI50: 994 nM
Substance: 6-(7)-Chloro-1-methyl-2,3,4,10,10a-pentaaza-cyclopenta[b]fluoren-9-one [Example 3/A]
